These results are taken from US12612410B2 (CHILDREN'S HOSPITAL MEDICAL CENTER, priority 2020, dated 2026).

pKd: −log10 of the molar value.

The assay concerns the target T1, FLT3 ITD, F691L (Homo sapiens, UniProt P36888, F691L, form not given).
T1 construct: fused on or other part: DNA tag for qPCR detection (T7 phage fusion or DNA-tagged protein from HEK-293 cells)
T1 sequence (P36888 1-993 F691L): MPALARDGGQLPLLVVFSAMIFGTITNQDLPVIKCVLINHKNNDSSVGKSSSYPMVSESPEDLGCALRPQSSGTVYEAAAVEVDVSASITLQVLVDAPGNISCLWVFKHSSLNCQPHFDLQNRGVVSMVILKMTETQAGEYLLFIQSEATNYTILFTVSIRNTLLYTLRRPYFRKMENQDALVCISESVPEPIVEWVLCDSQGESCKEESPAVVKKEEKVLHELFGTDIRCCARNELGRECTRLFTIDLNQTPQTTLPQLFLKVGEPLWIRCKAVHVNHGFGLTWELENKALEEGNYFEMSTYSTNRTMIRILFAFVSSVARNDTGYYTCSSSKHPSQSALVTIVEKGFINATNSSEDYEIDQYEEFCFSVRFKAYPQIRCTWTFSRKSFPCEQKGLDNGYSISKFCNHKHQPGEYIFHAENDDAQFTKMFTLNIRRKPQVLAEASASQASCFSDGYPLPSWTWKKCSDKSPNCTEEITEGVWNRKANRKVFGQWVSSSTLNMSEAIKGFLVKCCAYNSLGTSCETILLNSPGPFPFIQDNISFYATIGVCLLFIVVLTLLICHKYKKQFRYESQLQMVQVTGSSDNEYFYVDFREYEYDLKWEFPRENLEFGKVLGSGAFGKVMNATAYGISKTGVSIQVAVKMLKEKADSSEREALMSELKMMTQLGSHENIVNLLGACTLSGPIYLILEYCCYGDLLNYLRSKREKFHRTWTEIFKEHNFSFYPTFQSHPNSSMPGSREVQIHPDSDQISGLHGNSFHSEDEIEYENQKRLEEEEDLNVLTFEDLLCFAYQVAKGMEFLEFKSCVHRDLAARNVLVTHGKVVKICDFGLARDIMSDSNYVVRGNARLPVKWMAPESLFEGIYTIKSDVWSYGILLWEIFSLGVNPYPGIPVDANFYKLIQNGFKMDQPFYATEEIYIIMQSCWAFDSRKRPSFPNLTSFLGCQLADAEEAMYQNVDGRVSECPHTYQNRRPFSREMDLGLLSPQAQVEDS
As to the kind of experiment: DiscoverX KINOMEscan competition binding, FLT3 ITD, F691L. From the text:
Kinase binding data were obtained for various exemplary compounds prepared according to Examples 1-24 using the DiscoverX KINOMVIEscan® active site-directed competition binding site-directed assay protocol described below. […] As a result, the data report thermodynamic interaction affinities (Kd values), rather than IC50 values that are dependent on ATP concentrations. The assay uses a DNA-tagged version of the protein kinase, and an immobilized ligand bound to a solid support. Compounds that directly or indirectly prevent kinase binding to the immobilized ligand reduce the amount of kinase captured on the solid support, which is detected using an ultra-sensitive qPCR method. Affinity constants reported from the assay have been reported to be independent of the immobilized ligand used that is coupled to the solid support (See supplemental information in Fabian, M. A. et. al., (2005) Nat. Biotechnol. 23, 329-336; Wodicka, L. M. et. al., (2010) Chem. Biol. 17, 1241-1249.)
Kinase-tagged T7 phage strains were prepared in an E. coli host derived from the BL21 strain. E. coli were grown to log-phase and infected with T7 phage and incubated with shaking at 32° C. until lysis. The lysates were centrifuged and filtered to remove cell debris. The remaining kinases were produced in HEK-293 cells and subsequently tagged with DNA for qPCR detection. Streptavidin-coated magnetic beads were treated with biotinylated small molecule ligands for 30 minutes at room temperature to generate affinity resins for kinase assays. The liganded beads were blocked with excess biotin and washed with blocking buffer (SeaBlock (Pierce), 1% BSA, 0.05% Tween 20, 1 mM DTT) to remove unbound ligand and to reduce non-specific binding. Binding reactions were assembled by combining kinases, liganded affinity beads, and test compounds in 1× binding buffer (20% SeaBlock, 0.17×PBS, 0.05% Tween 20, 6 mM DTT). Test compounds were prepared as 111× stocks in 100% DMSO. Kds were determined using an 11-point 3-fold compound dilution series with three DMSO control points. All compounds for Kd measurements are distributed by acoustic transfer (non-contact dispensing) in 100% DMSO. The compounds were then diluted directly into the assays such that the final concentration of DMSO was 0.9%. All reactions were performed in polypropylene 384-well plates. Each was a final volume of 0.02 mL. The assay plates were incubated at room temperature with shaking for 1 hour and the affinity beads were washed with wash buffer (1×PBS, 0.05% Tween 20). The beads were then re-suspended in elution buffer (1×PBS, 0.05% Tween 20, 0.5 μM nonbiotinylated affinity ligand) and incubated at room temperature with shaking for 30 minutes. The kinase concentration in the eluates was measured by qPCR.
Binding constants (Kds) were calculated with a standard dose-response curve using the Hill equation. The Hill Slope was set to −1. Curves were fitted using a non-linear least square fit with the Levenberg-Marquardt algorithm.
Turning to `CC1(c2cn3c(-c4cccc(N[C@H]5CNC[C@@H]5F)n4)cnc3cn2)CC1` [Compound 1, N-((3S,4S)-4-fluoropyrrolidin-3-yl)-6-(6-(1-methylcyclopropyl)imidazo[1,2-a]pyrazin-3-yl)pyridin-2-amine], the pKd was 9.96. For the compound `CC1(c2cn3c(-c4cccc(N[C@@H]5CCNC5)n4)cnc3cn2)CC1` [Compound 3, (R)-6-(6-(1-methylcyclopropyl)imidazo[1,2-a]pyrazin-3-yl)-N-(pyrrolidin-3-yl)pyridin-2-amine], the pKd is 10.15. `CC1(c2cn3c(-c4cccc(N[C@H]5CNCC56CC6)n4)cnc3cn2)CC1` [Compound 5, (R)-N-(6-(6-(1-methylcyclopropyl)imidazo[1,2-a]pyrazin-3-yl)pyridin-2-yl)-5-azaspiro[2.4]heptan-7-amine] gave a pKd of 10.64.

Regarding `FC(F)(F)C1(c2cn3c(-c4cccc(N[C@@H]5CCNC5)n4)cnc3cn2)CC1` [Compound 10, (R)-N-(pyrrolidin-3-yl)-6-(6-(1-(trifluoromethyl)cyclopropyl)imidazo[1,2-a]pyrazin-3-yl)pyridin-2-amine], the pKd is 9.52.

`FC(F)c1cn2c(-c3cccc(N[C@H]4CNC[C@@H]4F)n3)cnc2cn1` [Compound 16, 6-(6-(difluoromethyl)imidazo[1,2-a]pyrazin-3-yl)-N-((3S,4S)-4-fluoropyrrolidin-3-yl)pyridin-2-amine] showed a pKd of 9.49. `FC(F)c1cn2c(-c3cccc(N[C@H]4CNCC[C@@H]4F)n3)cnc2cn1` [Compound 25, 6-(6-(difluoromethyl)imidazo[1,2-a]pyrazin-3-yl)-N-((3S,4S)-4-fluoropiperidin-3-yl)pyridin-2-amine] showed a pKd of 10.13. Regarding `CC(C)(O)c1cn2c(-c3cccc(N[C@@H]4CCCNC4)n3)cnc2cn1` [Compound 30, (R)-2-(3-(6-(piperidin-3-ylamino)pyridin-2-yl)imidazo[1,2-a]pyrazin-6-yl)propan-2-ol], the negative logarithm of the Kd (pKd) is 8.74. Take `CC(C)(O)c1cn2c(-c3cccc(N[C@H]4CNCC[C@@H]4F)n3)cnc2cn1` [Compound 31, 2-(3-(6-(((3S,4S)-4-fluoropiperidin-3-yl)amino)pyridin-2-yl)imidazo[1,2-a]pyrazin-6-yl)propan-2-ol]: the pKd is 9.31. `FC(F)(F)COc1cn2c(-c3cccc(N[C@@H]4CCNC4)n3)cnc2cn1` [Compound 38, (R)-N-(pyrrolidin-3-yl)-6-(6-(2,2,2-trifluoroethoxy)imidazo[1,2-a]pyrazin-3-yl)pyridin-2-amine] had a pKd of 9.12. `F[C@H]1CNC[C@@H]1Nc1cccc(-c2cnc3cnc(C4CC4)cn23)n1` [Compound 50, 6-(6-cyclopropylimidazo[1,2-a]pyrazin-3-yl)-N-((3S,4S)-4-fluoropyrrolidin-3-yl)pyridin-2-amine] had a pKd of 10.00.

`Cn1cc(-c2cn3c(-c4cccc(N[C@H]5CNC[C@@H]5F)n4)cnc3cn2)cn1` [Compound 52, N-((3S,4S)-4-fluoropyrrolidin-3-yl)-6-(6-(1-methyl-1H-pyrazol-4-yl)imidazo[1,2-a]pyrazin-3-yl)pyridin-2-amine]: the pKd is 10.21.

In general, pKd refers to −log10 of the Kd, conventionally taken in molar units.
